Measured values reported in PMC6136660 (Steroids, 2018).
Read-outs that look alike come from different tables or passages of the source.

How the values were obtained:
[1] = Phase 1 single ascending dose (SAD) pharmacokinetics, fasted; type: in vivo, human; settings: for Vd/F: read-out: Vz/F; for k el: read-out: λz (converted)
Method: This clinical trial was a randomized, double-blind, placebo controlled single ascending (SAD) and multiple ascending (MAD) study to evaluate the safety, tolerability, and pharmacokinetics of vamorolone in health adult subjects. The study protocol and its amendments were reviewed and approved by an Institutional Review Board. It was conducted in accordance with the principles of the Declaration of Helsinki in place at the time of study conduct and in compliance with the International Council on Harmonisation (ICH) E6 Guideline for Good Clinical Practice.
In the SAD part of the study, 7 cohorts were to be enrolled. Eight subjects were assigned to each of Cohorts 1 to 5 and 7 and received a single oral dose of vamorolone (planned as 0.1 mg/kg, 0.3 mg/kg, 1.0 mg/kg, 3.0 mg/kg, 8.0 mg/kg, and 20.0 mg/kg, respectively) or placebo under fasted conditions. Six subjects were assigned to Cohort 6 and were administered a single oral dose of 8.0 mg/kg vamorolone within 30 min of beginning a high fat/high calorie meal.
Subjects in Cohorts 1 through 5 and 7 were randomized to receive vamorolone or placebo in a 3:1 ratio (6 subjects received vamorolone, and 2 subjects received placebo) sequentially. In Cohort 1, 3 sentinel subjects were administered vamorolone or placebo in a 2:1 ratio. Following a review of sentinel safety and tolerability data (including reported adverse events [AEs], clinical laboratory tests, vital signs, and electrocardiograms [ECGs]), the remaining 5 subjects were randomized to receive vamorolone or placebo in a 4:1 ratio and dosed no earlier than 48 h after sentinel dosing. In Cohorts 2 to 5, and 7, subjects were administered vamorolone or placebo in a 3:1 ratio. Once Cohort 5 was completed and safety data had been reviewed, subjects in Cohort 6 were administered a single oral dose of 8.0 mg/kg vamorolone within 30 min of beginning a standard high fat/high calorie meal.
The initial starting dose for the vamorolone SAD study was chosen based on 10% of the NOAEL in the most sensitive species (mouse) (0.1 mg/kg). Doses were then escalated by 3-fold increments for 6 dose groups (0.1, 0.3, 1.0, 3.0, 9.0, 20.0 mg/kg). Eight adult male volunteers were studied in each dose group (6 drug-treated, 2 placebo).

[2] = test system: blood glucose (insulin resistance biomarker); test: Blood glucose, SAD; type: in vivo, human; settings: mean±SEM
Method: All biomarkers were analyzed using standard immunoassays by PRA.
Glucocorticoids were originally named as such due to their potent and acute effects on glucose metabolism, where liver and muscle pathways for insulin signaling are rapidly and profoundly affected, creating a state of insulin resistance. […] Fasting insulin and glucose levels were assessed in all dose groups in the vamorolone Phase 1 SAD and MAD.

[3] = male, human, plasma, single oral 0.1 mg/kg, fasted, geometric mean (%CV)
[4] = male, human, plasma, single oral 0.3 mg/kg, fasted, geometric mean (%CV)
[5] = male, human, plasma, single oral 1 mg/kg, fasted, geometric mean (%CV)
[6] = male, human, plasma, single oral 3 mg/kg, fasted, geometric mean (%CV)
[7] = male, human, plasma, single oral 8 mg/kg, fasted, geometric mean (%CV)
[8] = male, human, plasma, single oral 20 mg/kg, fasted, geometric mean (%CV)

Compound: C[C@@H]1C[C@H]2[C@@H]3CCC4=CC(=O)C=C[C@]4(C)C3=CC[C@]2(C)[C@@]1(O)C(=O)CO [vamorolone]
- slope of log plot of AUC(inf) vs dose ([1]; SAD 0.1-20 mg/kg): ~1.0
- slope of log plot of Cmax vs dose ([1]; SAD 0.1-20 mg/kg): < 1.0
- CL/F ([1]; male, human, plasma, oral, across single 0.1 to 20 mg/kg doses, fasted, read-out: CL/F, range of geometric mean values): 29.3 to 38.5 mL/min/kg
- half-life ([1]; male, human, plasma, oral, healthy subjects, approximate overall, read-out: half-life (converted)): ~3 h
- AUC(0-inf) [1, 3]: 49.5 ng·h/mL
- AUC(0-t) [1, 3]: 41.9 ng·h/mL
- Cmax [1, 3]: 13.1 ng/mL
- CL/F ([1]; male, human, plasma, single oral 0.1 mg/kg, fasted, geometric mean (%CV), read-out: CL/F (converted)): 33.7 mL/min/kg
- Vd/F [1, 3]: 4.98 L/kg
- half-life ([1]; male, human, plasma, single oral 0.1 mg/kg, fasted, geometric mean (%CV), read-out: t½ (converted)): 1.71 h
- k el [1, 3]: 0.000113 s⁻¹
- Tmax ([1]; male, human, plasma, single oral 0.1 mg/kg, fasted, median, read-out: Tmax): 1.5 h
- AUC(0-inf) [1, 4]: 170 ng·h/mL
- AUC(0-t) [1, 4]: 161 ng·h/mL
- Cmax [1, 4]: 50.8 ng/mL
- CL/F ([1]; male, human, plasma, single oral 0.3 mg/kg, fasted, geometric mean (%CV), read-out: CL/F (converted)): 29.3 mL/min/kg
- Vd/F [1, 4]: 4.07 L/kg
- half-life ([1]; male, human, plasma, single oral 0.3 mg/kg, fasted, geometric mean (%CV), read-out: t½ (converted)): 1.6 h
- k el [1, 4]: 0.00012 s⁻¹
- Tmax ([1]; male, human, plasma, single oral 0.3 mg/kg, fasted, median, read-out: Tmax): 1.5 h
- AUC(0-inf) [1, 5]: 500 ng·h/mL
- AUC(0-t) [1, 5]: 486 ng·h/mL
- Cmax [1, 5]: 122 ng/mL
- CL/F ([1]; male, human, plasma, single oral 1 mg/kg, fasted, geometric mean (%CV), read-out: CL/F (converted)): 33.3 mL/min/kg
- Vd/F [1, 5]: 5.22 L/kg
- half-life ([1]; male, human, plasma, single oral 1 mg/kg, fasted, geometric mean (%CV), read-out: t½ (converted)): 1.81 h
- k el [1, 5]: 0.000106 s⁻¹
- Tmax ([1]; male, human, plasma, single oral 1 mg/kg, fasted, median, read-out: Tmax): 1.75 h
- AUC(0-inf) [1, 6]: 1600 ng·h/mL
- AUC(0-t) [1, 6]: 1580 ng·h/mL
- Cmax [1, 6]: 305 ng/mL
- CL/F ([1]; male, human, plasma, single oral 3 mg/kg, fasted, geometric mean (%CV), read-out: CL/F (converted)): 31.3 mL/min/kg
- Vd/F [1, 6]: 6.76 L/kg
- half-life ([1]; male, human, plasma, single oral 3 mg/kg, fasted, geometric mean (%CV), read-out: t½ (converted)): 2.5 h
- k el [1, 6]: 7.7e-05 s⁻¹
- Tmax ([1]; male, human, plasma, single oral 3 mg/kg, fasted, median, read-out: Tmax): 1.75 h
- AUC(0-inf) [1, 7]: 3600 ng·h/mL
- AUC(0-t) [1, 7]: 4000 ng·h/mL
- Cmax [1, 7]: 718 ng/mL
- CL/F ([1]; male, human, plasma, single oral 8 mg/kg, fasted, geometric mean (%CV), read-out: CL/F (converted)): 37 mL/min/kg
- Vd/F [1, 7]: 10.4 L/kg
- half-life ([1]; male, human, plasma, single oral 8 mg/kg, fasted, geometric mean (%CV), read-out: t½ (converted)): 3.25 h
- k el [1, 7]: 5.93e-05 s⁻¹
- Tmax ([1]; male, human, plasma, single oral 8 mg/kg, fasted, median, read-out: Tmax): 1.78 h
- AUC(0-inf) [1, 8]: 8650 ng·h/mL
- AUC(0-t) [1, 8]: 8540 ng·h/mL
- Cmax [1, 8]: 1650 ng/mL
- CL/F ([1]; male, human, plasma, single oral 20 mg/kg, fasted, geometric mean (%CV), read-out: CL/F (converted)): 38.5 mL/min/kg
- Vd/F [1, 8]: 14.2 L/kg
- half-life ([1]; male, human, plasma, single oral 20 mg/kg, fasted, geometric mean (%CV), read-out: t½ (converted)): 4.26 h
- k el [1, 8]: 4.52e-05 s⁻¹
- Tmax ([1]; male, human, plasma, single oral 20 mg/kg, fasted, median, read-out: Tmax): 1.5 h
- Tmax ([1]; male, human, serum, oral suspension formulation (4% vamorolone by weight), read-out: time of peak serum concentrations): ~3 h
- CL/F ([1]; single oral 0.1 mg/kg, fasted, geometric mean (%CV)): 168 (20.8) (6) L/h
- CL/F ([1]; single oral 0.3 mg/kg, fasted, geometric mean (%CV)): 142 (14.4) (6) L/h
- CL/F ([1]; single oral 1 mg/kg, fasted, geometric mean (%CV)): 165 (12.0) (6) L/h
- CL/F ([1]; single oral 3 mg/kg, fasted, geometric mean (%CV)): 152 (18.5) (6) L/h
- CL/F ([1]; single oral 8 mg/kg, fasted, geometric mean (%CV)): 196 (57.6) (4) L/h
- CL/F ([1]; single oral 20 mg/kg, fasted, geometric mean (%CV)): 180 (29.8) (4) L/h
- Blood glucose ([2]; SAD 0.1 mg/kg, 24 Hours Post Dose): 95 ± 4 mg/dL
- Blood glucose ([2]; SAD 0.1 mg/kg, 48 Hours Post Dose): 95 ± 3 mg/dL
- Blood glucose ([2]; SAD 0.1 mg/kg, 72 Hours Post Dose): 94 ± 4 mg/dL
- Blood glucose ([2]; SAD 0.1 mg/kg, <2 hours predose, baseline): 95 ± 3 mg/dL
- Blood glucose ([2]; SAD 0.1 mg/kg, Day -1, baseline): 99 ± 3 mg/dL
- Blood glucose ([2]; SAD 0.1 mg/kg, Follow-up Visit): 98 ± 4 mg/dL
- Blood glucose ([2]; SAD 0.1 mg/kg, Screening, baseline): 94 ± 4 mg/dL
- Blood glucose ([2]; SAD 0.3 mg/kg, 24 Hours Post Dose): 91 ± 2 mg/dL
- Blood glucose ([2]; SAD 0.3 mg/kg, 48 Hours Post Dose): 90 ± 2 mg/dL
- Blood glucose ([2]; SAD 0.3 mg/kg, 72 Hours Post Dose): 91 ± 1 mg/dL
- Blood glucose ([2]; SAD 0.3 mg/kg, <2 hours predose, baseline): 93 ± 2 mg/dL
- Blood glucose ([2]; SAD 0.3 mg/kg, Day -1, baseline): 91 ± 2 mg/dL
- Blood glucose ([2]; SAD 0.3 mg/kg, Follow-up Visit): 88 ± 4 mg/dL
- Blood glucose ([2]; SAD 0.3 mg/kg, Screening, baseline): 93 ± 2 mg/dL
- Blood glucose ([2]; SAD 1.0 mg/kg, 24 Hours Post Dose): 86 ± 3 mg/dL
- Blood glucose ([2]; SAD 1.0 mg/kg, 48 Hours Post Dose): 88 ± 3 mg/dL
- Blood glucose ([2]; SAD 1.0 mg/kg, 72 Hours Post Dose): 86 ± 3 mg/dL
- Blood glucose ([2]; SAD 1.0 mg/kg, <2 hours predose, baseline): 93 ± 3 mg/dL
- Blood glucose ([2]; SAD 1.0 mg/kg, Day -1, baseline): 92 ± 3 mg/dL
- Blood glucose ([2]; SAD 1.0 mg/kg, Follow-up Visit): 93 ± 2 mg/dL
- Blood glucose ([2]; SAD 1.0 mg/kg, Screening, baseline): 92 ± 3 mg/dL
- Blood glucose ([2]; SAD 3.0 mg/kg, 24 Hours Post Dose): 93 ± 3 mg/dL
- Blood glucose ([2]; SAD 3.0 mg/kg, 48 Hours Post Dose): 89 ± 4 mg/dL
- Blood glucose ([2]; SAD 3.0 mg/kg, 72 Hours Post Dose): 88 ± 3 mg/dL
- Blood glucose ([2]; SAD 3.0 mg/kg, <2 hours predose, baseline): 92 ± 4 mg/dL
- Blood glucose ([2]; SAD 3.0 mg/kg, Day -1, baseline): 89 ± 3 mg/dL
- Blood glucose ([2]; SAD 3.0 mg/kg, Follow-up Visit): 91 ± 5 mg/dL
- Blood glucose ([2]; SAD 3.0 mg/kg, Screening, baseline): 96 ± 5 mg/dL
- Blood glucose ([2]; SAD 8.0 mg/kg, 24 Hours Post Dose): 91 ± 4 mg/dL
- Blood glucose ([2]; SAD 8.0 mg/kg, 48 Hours Post Dose): 87 ± 3 mg/dL
- Blood glucose ([2]; SAD 8.0 mg/kg, 72 Hours Post Dose): 89 ± 4 mg/dL
- Blood glucose ([2]; SAD 8.0 mg/kg, <2 hours predose, baseline): 86 ± 3 mg/dL
- Blood glucose ([2]; SAD 8.0 mg/kg, Day -1, baseline): 90 ± 5 mg/dL
- Blood glucose ([2]; SAD 8.0 mg/kg, Follow-up Visit): 94 ± 4 mg/dL
- Blood glucose ([2]; SAD 8.0 mg/kg, Screening, baseline): 89 ± 4 mg/dL
- Blood glucose ([2]; SAD 20.0 mg/kg, 24 Hours Post Dose): 91 ± 2 mg/dL
- Blood glucose ([2]; SAD 20.0 mg/kg, 48 Hours Post Dose): 86 ± 2 mg/dL
- Blood glucose ([2]; SAD 20.0 mg/kg, 72 Hours Post Dose): 88 ± 2 mg/dL
- Blood glucose ([2]; SAD 20.0 mg/kg, <2 hours predose, baseline): 97 ± 4 mg/dL
- Blood glucose ([2]; SAD 20.0 mg/kg, Day -1, baseline): 94 ± 3 mg/dL
- Blood glucose ([2]; SAD 20.0 mg/kg, Follow-up Visit): 89 ± 3 mg/dL
- Blood glucose ([2]; SAD 20.0 mg/kg, Screening, baseline): 93 ± 3 mg/dL
